Test results: patent publication EP0171005A2, “Xanthinylmethylthiazolidines, process for their preparation and pharmaceutical compositions containing them” (BOEHRINGER BIOCHEMIA ROBIN S.p.A., priority 1984, dated 1986)
Read-outs that look alike come from different tables or passages of the source.

How the values were obtained:
[1] = test system: trachea smooth muscle strips of Guinea pig contracted by methaco- line; assay: Relaxation in vitro of trachea smooth muscle strips contracted by methacholine; conditions: Cavia porcellus, read-out: ED50 (the source's name)
Source text: In particular these latter compounds of the invention are also characterized by pronounced ability to induce relaxation of the bronchial and tracheal smooth muscle.

[2] = test system: anhaestetized guinea pigs; assay: Konzett-Ressler test, resolution of histamine-induced bronchospasm; format: in vivo; conditions: intrajugular administration; bronchospasm induced by i.v. histamine
Guinea pigs = assay: Guinea pig cough test (Charlier procedure, citric acid aerosol); format: in vivo; conditions: for ED50: Cavia porcellus, ip, 1 h; for delay of first cough stroke: delay corresponding to the ED50, i.p.
Procedure: (§1) The techniques described by Charlier et al. (Arch. Int. Pharmacodyn. 134, 306, 1961) and by Stefko et al. (J. Pharm. Exp. Therap., 108, 217, 1953), adapted with minor modifications, are used to investigate the antitussive properties of the compounds of the invention. Codeine phosphate is used as positive reference compound.
According to the Charlier procedure, Guinea pigs are exposed to a citric acid aerosol (7.5%) and cough is recorded 60 minutes after the antitussive treatment by i.p. route. Male animals of 300-400 g body weight are used in all the experiments. Guinea pigs are placed in a perspex box (20x30x30 cm) connected to an aerosol compressor; the animals are subjected to a citric acid saturated atmosphere, 60 minutes after the i.p. injection of a compound of the invention (0.1 and 0.3 M solutions; 1 ml/kg).
The total number of cough strokes and the delay of the first cough are recorded during the first five minutes.
Five guinea pigs are used for each dose level and the results are compared with controls (vehicle treatment) and codeine phosphate 0.07 M solution (standard treatment).
ED and the corresponding delay of first cough stroke are calculated.
The data obtained by i.p. administration are confirmed by oral administration.

conscious mongrel dogs = assay: Dog cough test (Stefko procedure, cough induced by electric stimulation of the trachea); format: in vivo
Procedure: as §1
In the Stefko procedure, conscious mongrel dogs (15+3 kg body weight) are used; the compounds of the invention are tested for their ability to inhibit cough induced by electric stimulation.
Under general anesthesia, two insulated nichrome wires (0.4 mm diameter) are surgically implanted into the submucosa of the trachea.
About two days later, the dogs are placed in a sling and the exteriorized electrodes are connected to an electric stimulating device (such as Grass S 48 Mod.).
The stimulation parameters such as: delay 0.01 msec, duration 1 msec, frequency 30 Hz, are used.
An electrical stimulus of 1 sec is applied 10 times at 5 sec intervals in order to determine the minimum voltage necessary for eliciting reproducible cough responses. Then, tussive responses to the electrical stimuli are registered at 15, 30, 60, 90, 120, 150, 180, 240, 300 and 360 minutes after oral administration of the compounds of the invention.
The tussive responses are scored as follows: • 1: no response; 2: sigh or exaggerated expiration; • 3: marked cough; 4: one marked cough and one exaggerated expiration; 5: two marked coughs.
Six dogs are employed for each determination and the mean activity is calculated.
The inhibition percent of the cough response and the duration of activity are compared with codeine.

[3] = test system: male New Zealand white rabbits; assay: Mucus regulating properties in bronchitic rabbits (5% H2SO3 aerosol), sputum parameters as AUC; format: in vivo; conditions: for Fucose (mg/ml), AUC as a 100% compared to bronchitic controls / Galactose (mg/ml), AUC as a 100% compared to bronchitic controls / Mucus produc-tion (ml/kg), AUC as a 100% compared to bronchitic controls / Phospho-lipids (mg/ml), AUC as a 100% compared to bronchitic controls / Protein (mg/ml), AUC as a 100% compared to bronchitic controls / Sialic acid (mg/ml), AUC as a 100% compared to bronchitic controls / Viscosity (cps), AUC as a 100% compared to bronchitic controls: Table 2, oral, equimolecular amounts to S-carboxymethyl cysteine
Procedure: The mucus regulating properties of the compounds of the invention are investigated "in vivo" by means of experiments carried out on male New Zealand white rabbits. The animals are submitted to inhalation of a 5% H2S03 aqueous solution by aerosol (exposition of 3 hours a day for 3 alternate days), to induce a chronic bronchial inflammatory disease which causes a production of pathological sputum in the bronchial tree.
Aim of the experiments is to evaluate modifications of selective parameters such as dry weight of the sputum, viscosity, content in proteins, phospholipids, galactose, sialic acid and fucose, induced in this pathological sputum by pharmacological treatment with the compounds of the invention.
To this purpose, the sputum produced in the bronchial tree is collected daily, through a "T" shaped glass cannula, inserted in the trachea, before and after oral twice a day (9.00 a.m. and 4.00 p.m.) treatment with one of the compounds of the invention.
The schedule treatment procedure is shown in the following Schema 1: [drawing 23] where 0 indicates the day of implantation of the tracheal cannula; -7-5-3 indicate the days of H2S03 treatment (H); 1,2,3,4 indicate the days of oral administration of the compounds of the invention (T) and the time of mucus collection (M).
The mucus collected in day 1 in the morning is considered as a blank; 7 indicates the day of the animal sacrifice after the mucus collection.
The sputum samples are stored in the freezer (-20°C) until the investigation of biological and rheological parameters is carried out.
The samples are investigated for relative viscosity, measured at 37°C with a Brookfield viscometer (model LT VD) equipped with a 1,565° cone-plate, and aliquoted for biochemical analysis of protein, phospholipids, galactose, sialic acid and fucose contents. Dry weight of the mucus is also determined. For each parameter, cumulative data are referred to a seven days period after the beginning of the treatment and they are extrapolated using the AUC method (area under curve) calculated by the trapezoidal rule. Finally the data are compared with data obtained from controls (vehicle treatment), non bronchitic rabbits (vehicle treatment) and positive controls bronchitis rabbits treated with 0.153 M 2-carboxymethyl cysteine.

[4] = Acute toxicity, LD50 in mice; conditions: mouse, in vivo
Source text: LD50 values above 1 g/kg are generally determined both after oral and intraperitoneal administration of the compounds of the invention.

[5] = Table 1, 0.153 M, oral twice a day, seven days period

COc1cc(C=CC(=O)N2CCSC2Cn2cnc3c2c(=O)n(C)c(=O)n3C)cc(CN2CCOCC2)c1O (centres unmarked) [2-LTl',3'-dimethyl-xanthin-7'-yl)methyl]-3-[(3-morpholinylmethyl-4'-hydroxy-5'-methoxy)cinnamoyi7thiazolidine]
EC50 [1]: 190 µM
activity compared with aminophylline in the resolution of bronchospasm [2]: at least four times more active than aminophylline

Cn1c(=O)c2c(ncn2CC2NC(C(=O)O)CS2)n(C)c1=O (centres unmarked) [2-[(1',3'-dimethylxanthin-7'-yl)methyl]thiazolidine-4-carboxylic acid]
ED50 (Guinea pigs; citric acid aerosol 7.5%, cough recorded 60 minutes after i.p. treatment, read-out: ED50): 62 mg/kg
delay of first cough stroke (Guinea pigs): 213%
duration of action compared with codeine (Guinea pigs; guinea pig cough test): more favourable duration of action in comparison to codeine
duration of action compared with codeine (conscious mongrel dogs; 20 mg/kg, dogs): favourably compares with codeine for its duration of action
inhibition at 20 mg/kg (conscious mongrel dogs; Canis lupus familiaris, 20 mg/kg, oral, read-out: inhibition of the cough stimulus): 32%
Fucose (mg/ml), AUC as a 100% compared to bronchitic controls [3]: 77%
Galactose (mg/ml), AUC as a 100% compared to bronchitic controls [3]: 82%
Mucus produc-tion (ml/kg), AUC as a 100% compared to bronchitic controls [3]: 128%
Phospho-lipids (mg/ml), AUC as a 100% compared to bronchitic controls [3]: 78%
Protein (mg/ml), AUC as a 100% compared to bronchitic controls [3]: 80%
Sialic acid (mg/ml), AUC as a 100% compared to bronchitic controls [3]: 81%
Viscosity (cps), AUC as a 100% compared to bronchitic controls [3]: 55%

Cn1c(=O)c2c(ncn2CC2NCCS2)n(C)c1=O (centres unmarked) [2-[(1',3'-dimethylxanthin-7'-yl)methyl]thiazolidine]
LD50 ([4]; ip, read-out: LD 50 (i.p.)): 480 mg/kg
LD50 ([4]; oral, read-out: LD 50 (os)): 600 mg/kg
Fucose (mg/ml), AUC as a 100% compared to bronchitic controls [3]: 66%
Galactose (mg/ml), AUC as a 100% compared to bronchitic controls [3]: 5%
Mucus produc-tion (ml/kg), AUC as a 100% compared to bronchitic controls [3]: 80%
Phospho-lipids (mg/ml), AUC as a 100% compared to bronchitic controls [3]: 30%
Protein (mg/ml), AUC as a 100% compared to bronchitic controls [3]: 58%
Sialic acid (mg/ml), AUC as a 100% compared to bronchitic controls [3]: 101%
Viscosity (cps), AUC as a 100% compared to bronchitic controls [3]: 16%

N[C@@H](CSCC(=O)O)C(=O)O [S-carboxy-methyl cy steine, S-carboxymethyl cysteine, reference compound]
Fucose mg/ml, AUC as a % compared to bronchitis controls [3, 5]: 56%
Galactose mg/ml, AUC as a % compared to bronchitis controls [3, 5]: 64%
Mucus production ml/kg, AUC as a % compared to bronchitis controls [3, 5]: 97%
Phospholipids mg/ml, AUC as a % compared to bronchitis controls [3, 5]: 108%
Protein mg/ml, AUC as a % compared to bronchitis controls [3, 5]: 105%
Sialic acid mg/ml, AUC as a % compared to bronchitis controls [3, 5]: 60%
Viscosity (cps), AUC as a % compared to bronchitis controls [3, 5]: 52%

COc1ccc2c3c1O[C@H]1[C@@H](O)C=C[C@H]4[C@@H](C2)N(C)CC[C@@]341 [codeine phosphate, reference compound]
ED50 (Guinea pigs): ~23 mg/kg
delay of first cough stroke (Guinea pigs): 170%
duration of activity (conscious mongrel dogs; 8 mg/kg, oral): 2 to 4 h
inhibition at 8 mg/kg (conscious mongrel dogs; Canis lupus familiaris, po, read-out: inhibition of the cough stimulus): 52%

Cn1c(=O)c2c(ncn2CC(O)CO)n(C)c1=O (centres unmarked) [dihydroxypropyltheophylline, reference compound]
EC50 ([1]; reference, unit inferred): 76 µM
